Assay results as given in publication PMC11842588, “A first-in-class selective inhibitor of ERK1/2 and ERK5 overcomes drug resistance with a single-molecule strategy” (Signal Transduction and Targeted Therapy, 2025).

Legend:
ERK5 = ERK5 (Homo sapiens, UniProt Q13164); test: Isothermal titration calorimetry (ITC) assay; type: binding; parameters: ERK5 (residues 48–395) containing His and GST tags was cloned into the pFastBac vector; His (cleaved yes); GST (cleaved yes); made in house; host or cells: Sf9 insect cells (baculovirus); settings: 25 °C
Description: The full-length human ERK1 or ERK2 with His-tag was cloned into a pET28a vector. hERK1/2 were expressed in Escherichia coli BL21(DE3), and then were purified using sequential Ni-NTA and Superdex 200 column steps. The SEC purified sample was then concentrated to 10 mg/ml and stored at −80 °C with buffer containing 20 mM HEPES pH 7.5, 150 mM NaCl. ERK5 (residues 48–395) containing His and GST tags was cloned into the pFastBac vector, and the recombinant plasmid was extracted. The recombinant plasmid was transformed into the DH10bac strain, and monoclonal was selected for culture. The recombinant Bacmid was then extracted according to the instructions of the Baculovirus Shuttle Vector Bacmid Mini Preparation Kit (Beyotime) and validated by PCR. 1 × 10^6/well Sf9 cells were counted for transfection and then amplified to obtain P3 ERK5 recombinant baculovirus. It was added to 2 × 10^6/mL Sf9 cells and incubated at 27 °C for 72 h on a shaker to express ERK5. Cells were lysed and supernatant was collected on a Ni-NTA for purification, and a 250 mM imidazole eluate was collected. […]
Calorimetric experiments were carried on an Affinity ITC (Waters, Shanghai) with 1 mM SKLB-D18 and 0.1 mM ERK1/2/5. […] The data were analyzed with the NanoAnalyze software employing a single binding site model. […]

BrSK1(h) = target: T1, BrSK1(h) (Homo sapiens, UniProt Q8TDC3); test: Kinase profiling; type: biochemical
T1 construct: purchased Eurofins Cerep SA (KinaseProfiler)
Description: (§1) 380 kinases inhibitory activities of SKLB-D18 were conducted by Eurofins Cerep SA. The result was illustrated by kinase tree (http://www.kinhub.org/kinmap/).

Fes(h) = target: T2, Fes(h) (Homo sapiens, UniProt P07332); test: Kinase profiling; type: biochemical
T2 construct: purchased Eurofins Cerep SA (KinaseProfiler)
Description: as §1

PKCβI(h) = target: T3, PKCβI(h) (Homo sapiens, UniProt P05771); test: Kinase profiling; type: biochemical
T3 construct: purchased Eurofins Cerep SA (KinaseProfiler)
Description: as §1

Axl(h) = target: T4, Axl(h) (Homo sapiens, UniProt P30530); test: Kinase profiling; type: biochemical
T4 construct: purchased Eurofins Cerep SA (KinaseProfiler)
Description: as §1

PKA(h) = target: T5, PKA(h) (Homo sapiens, UniProt P17612); test: Kinase profiling; type: biochemical
T5 construct: purchased Eurofins Cerep SA (KinaseProfiler)
Description: as §1

Rsk4(h) = target: T6, Rsk4(h) (Homo sapiens, UniProt Q9UK32); test: Kinase profiling; type: biochemical
T6 construct: purchased Eurofins Cerep SA (KinaseProfiler)
Description: as §1

LIMK1(h) = target: T7, LIMK1(h) (Homo sapiens, UniProt P53667); test: Kinase profiling; type: biochemical
T7 construct: purchased Eurofins Cerep SA (KinaseProfiler)
Description: as §1

Ron(h) = target: T8, Ron(h) (Homo sapiens, UniProt Q04912); test: Kinase profiling; type: biochemical
T8 construct: purchased Eurofins Cerep SA (KinaseProfiler)
Description: as §1

MSSK1(h) = target: T9, MSSK1(h) (Homo sapiens, UniProt Q9UPE1); test: Kinase profiling; type: biochemical
T9 construct: purchased Eurofins Cerep SA (KinaseProfiler)
Description: as §1

WNK1(h) = target: T10, WNK1(h) (Homo sapiens, UniProt Q9H4A3); test: Kinase profiling; type: biochemical
T10 construct: purchased Eurofins Cerep SA (KinaseProfiler)
Description: as §1

CDK5/p35(h) = target: T11, CDK5/p35(h) (Homo sapiens, UniProt Q00535); test: Kinase profiling; type: biochemical
T11 construct: purchased Eurofins Cerep SA (KinaseProfiler)
Description: as §1

MAP4K5(h) = target: T12, MAP4K5(h) (Homo sapiens, UniProt Q9Y4K4); test: Kinase profiling; type: biochemical
T12 construct: purchased Eurofins Cerep SA (KinaseProfiler)
Description: as §1

Tec(h) activated = target: T13, Tec(h) activated (Homo sapiens, UniProt P42680); test: Kinase profiling; type: biochemical
T13 construct: purchased Eurofins Cerep SA (KinaseProfiler)
Description: as §1

DYRK1B(h) = target: T14, DYRK1B(h) (Homo sapiens, UniProt Q9Y463); test: Kinase profiling; type: biochemical
T14 construct: purchased Eurofins Cerep SA (KinaseProfiler)
Description: as §1

PRK2(h) = target: T15, PRK2(h) (Homo sapiens, UniProt Q16513); test: Kinase profiling; type: biochemical
T15 construct: purchased Eurofins Cerep SA (KinaseProfiler)
Description: as §1

PI3KC2a(h) = target: T16, PI3KC2a(h) (Homo sapiens, UniProt O00443); test: Kinase profiling; type: biochemical
T16 construct: purchased Eurofins Cerep SA (KinaseProfiler)
Description: as §1

PKCδ(h) = target: T17, PKCδ(h) (Homo sapiens, UniProt Q05655); test: Kinase profiling; type: biochemical
T17 construct: purchased Eurofins Cerep SA (KinaseProfiler)
Description: as §1

WNK3(h) = target: T18, WNK3(h) (Homo sapiens, UniProt Q9BYP7); test: Kinase profiling; type: biochemical
T18 construct: purchased Eurofins Cerep SA (KinaseProfiler)
Description: as §1

PKBβ(h) = target: T19, PKBβ(h) (Homo sapiens, UniProt P31751); test: Kinase profiling; type: biochemical
T19 construct: purchased Eurofins Cerep SA (KinaseProfiler)
Description: as §1

RIPK2(h) = target: T20, RIPK2(h) (Homo sapiens, UniProt O43353); test: Kinase profiling; type: biochemical
T20 construct: purchased Eurofins Cerep SA (KinaseProfiler)
Description: as §1

PIP5K1a(h) = target: T21, PIP5K1a(h) (Homo sapiens, UniProt Q99755); test: Kinase profiling; type: biochemical
T21 construct: purchased Eurofins Cerep SA (KinaseProfiler)
Description: as §1

ZAP-70(h) = target: T22, ZAP-70(h) (Homo sapiens, UniProt P43403); test: Kinase profiling; type: biochemical
T22 construct: purchased Eurofins Cerep SA (KinaseProfiler)
Description: as §1

MAPK7(h) = target: T23, MAPK7(h) (Homo sapiens, UniProt Q13164); test: Kinase profiling; type: biochemical
T23 construct: purchased Eurofins Cerep SA (KinaseProfiler)
Description: as §1

PAK4(h) = target: T24, PAK4(h) (Homo sapiens, UniProt O96013); test: Kinase profiling; type: biochemical
T24 construct: purchased Eurofins Cerep SA (KinaseProfiler)
Description: as §1

[1] = target: T25, PI3 Kinase (p110b/p85a)(h) (Homo sapiens, UniProt P42338); test: Kinase profiling; type: biochemical
T25 construct: purchased Eurofins Cerep SA (KinaseProfiler)
Description: as §1

MLCK(h) = target: T26, MLCK(h) (Homo sapiens, UniProt Q9H1R3); test: Kinase profiling; type: biochemical
T26 construct: purchased Eurofins Cerep SA (KinaseProfiler)
Description: as §1

T13 sequence (P42680 whole entry): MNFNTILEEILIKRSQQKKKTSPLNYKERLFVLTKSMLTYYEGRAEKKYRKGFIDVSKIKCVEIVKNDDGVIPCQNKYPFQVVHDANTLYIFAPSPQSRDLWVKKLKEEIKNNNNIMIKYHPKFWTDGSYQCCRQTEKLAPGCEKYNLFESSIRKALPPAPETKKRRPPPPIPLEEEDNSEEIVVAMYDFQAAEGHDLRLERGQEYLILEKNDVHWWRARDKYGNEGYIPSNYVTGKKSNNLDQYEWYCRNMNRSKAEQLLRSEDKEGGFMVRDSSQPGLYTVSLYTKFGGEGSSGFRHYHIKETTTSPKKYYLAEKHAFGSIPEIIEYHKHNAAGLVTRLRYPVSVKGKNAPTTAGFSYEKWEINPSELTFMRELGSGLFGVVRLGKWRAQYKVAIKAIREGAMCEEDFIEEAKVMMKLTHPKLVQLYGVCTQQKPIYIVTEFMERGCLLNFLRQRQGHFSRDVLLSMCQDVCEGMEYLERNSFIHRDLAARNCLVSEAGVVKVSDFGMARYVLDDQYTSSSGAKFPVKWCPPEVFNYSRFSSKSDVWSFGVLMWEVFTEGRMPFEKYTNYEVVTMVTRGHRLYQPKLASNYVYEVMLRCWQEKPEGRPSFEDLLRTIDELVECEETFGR
T19 sequence (P31751 whole entry): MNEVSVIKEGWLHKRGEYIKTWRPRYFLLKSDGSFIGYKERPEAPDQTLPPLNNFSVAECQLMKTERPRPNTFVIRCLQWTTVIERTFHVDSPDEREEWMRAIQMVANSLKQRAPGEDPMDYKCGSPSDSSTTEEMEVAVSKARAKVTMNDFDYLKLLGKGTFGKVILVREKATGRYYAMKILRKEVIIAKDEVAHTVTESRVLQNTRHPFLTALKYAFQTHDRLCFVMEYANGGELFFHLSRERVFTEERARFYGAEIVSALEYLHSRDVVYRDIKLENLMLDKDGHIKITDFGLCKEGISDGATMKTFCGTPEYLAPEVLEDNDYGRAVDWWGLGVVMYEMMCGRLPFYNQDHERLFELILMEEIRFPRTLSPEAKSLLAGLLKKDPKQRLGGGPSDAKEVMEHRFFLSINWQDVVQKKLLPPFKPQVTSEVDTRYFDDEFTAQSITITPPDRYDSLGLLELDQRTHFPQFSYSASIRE
T24 sequence (O96013 whole entry): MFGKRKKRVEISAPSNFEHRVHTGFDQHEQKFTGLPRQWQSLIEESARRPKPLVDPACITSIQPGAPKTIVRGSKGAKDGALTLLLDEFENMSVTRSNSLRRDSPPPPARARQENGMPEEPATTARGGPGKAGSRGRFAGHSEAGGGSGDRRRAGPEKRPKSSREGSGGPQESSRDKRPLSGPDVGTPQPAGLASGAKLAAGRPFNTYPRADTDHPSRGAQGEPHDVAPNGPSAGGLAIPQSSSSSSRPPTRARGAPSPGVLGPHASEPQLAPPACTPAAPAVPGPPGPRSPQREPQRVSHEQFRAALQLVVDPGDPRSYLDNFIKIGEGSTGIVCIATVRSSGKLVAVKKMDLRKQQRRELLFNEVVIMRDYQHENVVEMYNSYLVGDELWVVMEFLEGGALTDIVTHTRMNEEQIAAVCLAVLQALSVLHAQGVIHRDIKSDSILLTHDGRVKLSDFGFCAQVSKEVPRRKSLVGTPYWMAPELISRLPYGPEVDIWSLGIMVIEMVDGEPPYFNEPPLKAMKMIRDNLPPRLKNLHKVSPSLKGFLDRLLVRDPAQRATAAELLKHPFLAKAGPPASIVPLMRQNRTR
T25 sequence (P42338 whole entry): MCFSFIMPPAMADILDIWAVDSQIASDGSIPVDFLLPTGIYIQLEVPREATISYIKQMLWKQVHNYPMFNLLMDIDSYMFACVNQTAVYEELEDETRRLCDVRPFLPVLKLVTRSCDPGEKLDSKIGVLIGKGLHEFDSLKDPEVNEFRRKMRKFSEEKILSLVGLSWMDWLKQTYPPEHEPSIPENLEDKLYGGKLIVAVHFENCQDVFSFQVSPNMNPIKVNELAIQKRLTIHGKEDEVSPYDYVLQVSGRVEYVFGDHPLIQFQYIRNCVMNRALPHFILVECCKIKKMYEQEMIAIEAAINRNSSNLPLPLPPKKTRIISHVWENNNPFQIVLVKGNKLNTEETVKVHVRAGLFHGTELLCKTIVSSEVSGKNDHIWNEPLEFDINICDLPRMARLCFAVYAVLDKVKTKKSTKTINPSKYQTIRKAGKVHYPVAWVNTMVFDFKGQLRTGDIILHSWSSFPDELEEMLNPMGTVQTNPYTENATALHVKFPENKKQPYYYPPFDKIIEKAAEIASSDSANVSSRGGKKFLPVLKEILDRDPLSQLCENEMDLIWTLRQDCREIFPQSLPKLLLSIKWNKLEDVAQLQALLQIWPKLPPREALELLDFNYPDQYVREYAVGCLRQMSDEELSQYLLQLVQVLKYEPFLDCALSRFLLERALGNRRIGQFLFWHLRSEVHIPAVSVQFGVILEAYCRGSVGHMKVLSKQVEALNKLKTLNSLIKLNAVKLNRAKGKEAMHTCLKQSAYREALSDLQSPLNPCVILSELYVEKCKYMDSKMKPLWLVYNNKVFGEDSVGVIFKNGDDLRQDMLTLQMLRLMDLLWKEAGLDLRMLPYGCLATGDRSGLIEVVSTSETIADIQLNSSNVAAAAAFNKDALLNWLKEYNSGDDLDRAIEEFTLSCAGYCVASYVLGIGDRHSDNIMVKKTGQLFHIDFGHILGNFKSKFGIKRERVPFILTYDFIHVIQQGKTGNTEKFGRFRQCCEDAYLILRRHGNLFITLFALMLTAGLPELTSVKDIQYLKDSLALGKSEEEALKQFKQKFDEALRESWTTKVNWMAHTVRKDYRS
T25 sequence (P27986 whole entry partner): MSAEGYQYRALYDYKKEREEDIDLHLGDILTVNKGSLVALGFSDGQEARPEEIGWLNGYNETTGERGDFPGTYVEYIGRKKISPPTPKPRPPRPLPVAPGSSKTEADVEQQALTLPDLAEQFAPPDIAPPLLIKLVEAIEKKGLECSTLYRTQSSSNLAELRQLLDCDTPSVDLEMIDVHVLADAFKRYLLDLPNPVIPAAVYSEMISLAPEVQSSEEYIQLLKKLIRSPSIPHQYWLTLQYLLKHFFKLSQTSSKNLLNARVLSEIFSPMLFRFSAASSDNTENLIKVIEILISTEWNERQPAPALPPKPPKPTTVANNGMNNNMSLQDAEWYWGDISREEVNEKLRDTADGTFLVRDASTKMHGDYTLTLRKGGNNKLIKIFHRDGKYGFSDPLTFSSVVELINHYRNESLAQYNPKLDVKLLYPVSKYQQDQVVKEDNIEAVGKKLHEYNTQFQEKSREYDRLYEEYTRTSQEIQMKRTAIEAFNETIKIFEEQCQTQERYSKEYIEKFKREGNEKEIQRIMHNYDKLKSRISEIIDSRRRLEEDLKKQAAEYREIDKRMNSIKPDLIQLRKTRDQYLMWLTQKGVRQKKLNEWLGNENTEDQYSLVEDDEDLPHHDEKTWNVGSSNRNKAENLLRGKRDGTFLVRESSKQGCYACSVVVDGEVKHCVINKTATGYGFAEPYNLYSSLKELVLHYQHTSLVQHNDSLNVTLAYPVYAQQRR
T3 sequence (P05771 whole entry): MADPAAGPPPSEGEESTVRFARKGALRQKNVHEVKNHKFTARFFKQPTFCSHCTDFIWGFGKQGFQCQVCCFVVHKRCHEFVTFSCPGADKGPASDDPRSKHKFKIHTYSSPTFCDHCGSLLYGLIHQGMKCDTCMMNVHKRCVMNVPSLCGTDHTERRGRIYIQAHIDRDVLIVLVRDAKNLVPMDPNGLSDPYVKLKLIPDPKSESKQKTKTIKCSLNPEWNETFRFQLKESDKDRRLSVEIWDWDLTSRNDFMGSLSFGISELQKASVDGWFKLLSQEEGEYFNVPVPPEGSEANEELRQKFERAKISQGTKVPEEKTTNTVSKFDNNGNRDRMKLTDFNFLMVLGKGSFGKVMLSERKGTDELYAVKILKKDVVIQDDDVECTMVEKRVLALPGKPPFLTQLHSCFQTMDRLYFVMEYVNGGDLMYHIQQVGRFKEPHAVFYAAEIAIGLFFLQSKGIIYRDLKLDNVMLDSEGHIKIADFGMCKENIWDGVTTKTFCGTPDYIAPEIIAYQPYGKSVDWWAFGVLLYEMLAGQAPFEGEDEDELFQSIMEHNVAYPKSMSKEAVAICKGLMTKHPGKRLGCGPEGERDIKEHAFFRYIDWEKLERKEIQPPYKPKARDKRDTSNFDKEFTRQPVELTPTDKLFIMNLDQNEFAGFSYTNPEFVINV
T9 sequence (Q9UPE1 whole entry): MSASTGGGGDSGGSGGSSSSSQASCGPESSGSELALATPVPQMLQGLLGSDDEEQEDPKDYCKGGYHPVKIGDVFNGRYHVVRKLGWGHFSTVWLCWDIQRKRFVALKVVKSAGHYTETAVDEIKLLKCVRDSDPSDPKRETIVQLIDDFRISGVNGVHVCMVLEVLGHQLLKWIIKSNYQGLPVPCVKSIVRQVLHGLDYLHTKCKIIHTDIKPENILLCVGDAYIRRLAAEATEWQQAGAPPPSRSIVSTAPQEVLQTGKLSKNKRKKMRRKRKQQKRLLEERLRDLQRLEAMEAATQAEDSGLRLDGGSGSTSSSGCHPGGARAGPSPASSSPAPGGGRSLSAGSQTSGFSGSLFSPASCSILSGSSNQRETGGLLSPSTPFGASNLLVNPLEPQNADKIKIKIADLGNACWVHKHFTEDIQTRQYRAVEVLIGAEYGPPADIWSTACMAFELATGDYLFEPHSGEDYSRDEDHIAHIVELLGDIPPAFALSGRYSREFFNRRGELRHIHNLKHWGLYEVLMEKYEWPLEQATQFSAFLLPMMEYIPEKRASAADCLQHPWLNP

Compound CN(C)Cc1cccc(Nc2ncc(Cl)c(-c3csc(C(=O)NN4CCOCC4)c3)n2)c1 [SKLB-D18, 4-(5-chloro-2-((3-((dimethylamino)methyl)phenyl)amino)pyrimidin-4-yl)-N-morpholinothiophene-2-carboxamide] has a Kd (ERK5) of 468 nM, an inhibition at 1 µM (BrSK1(h)) of 2% and an inhibition at 1 µM (Fes(h)) of 53%. It also gave an inhibition at 1 µM (PKCβI(h)) of 12%, an inhibition at 1 µM (Axl(h)) of 36% and an inhibition at 1 µM (PKA(h)) of 19%. For the same compound, the inhibition at 1 µM (Rsk4(h)) was 63%, the inhibition at 1 µM (LIMK1(h)) was 20% and the inhibition at 1 µM (Ron(h)) was 58%. For the same compound, the inhibition at 1 µM (MSSK1(h)) was -19%, the inhibition at 1 µM (WNK1(h)) was 12% and the inhibition at 1 µM (CDK5/p35(h)) was 57%. For the same compound, the inhibition at 1 µM (MAP4K5(h)) was 51%, the inhibition at 1 µM (Tec(h) activated) was 8% and the inhibition at 1 µM (DYRK1B(h)) was 67%. For the same compound, the inhibition at 1 µM (PRK2(h)) was 64%, the inhibition at 1 µM (PI3KC2a(h)) was 1% and the inhibition at 1 µM (PKCδ(h)) was 23%. The inhibition at 1 µM (WNK3(h)) was 9%, the inhibition at 1 µM (PKBβ(h)) was -12% and the inhibition at 1 µM (RIPK2(h)) was 61%. For the same compound, the inhibition at 1 µM (PIP5K1a(h)) was -5%, the inhibition at 1 µM (ZAP-70(h)) was 1% and the inhibition at 1 µM (MAPK7(h)) was 93%. It also gave an inhibition at 1 µM (PAK4(h)) of 21%, an inhibition at 1 µM [1] of 8% and an inhibition at 1 µM (MLCK(h)) of 16%.
